Assay type in all cases: cell-based, BALB/c mouse
Test [1] relates to IgGl antibody production from murine spleen B cells. Description: Effects on the IgGl antibody production from murine spleen cells (LPS + IL4). The note with it: Mus musculus, B-cell, 168 h; spleen B cells, LPS 10 μg/ml, IL4 100 U/ml, 7 days, enzyme-immunoassay; read-out: IC50 value, IgGl antibody production.
The subject of test [2] is IgM antibody production from murine spleen B cells. Description: Effects on the IgM antibody production from murine spleen cells (LPS + IL4). The note with it: Mus musculus, B-cell, 168 h; spleen B cells, LPS 10 μg/ml, IL4 100 U/ml, 7 days, enzyme-immunoassay; read-out: IC50 value, IgM antibody production.
Test [3] has as its system IgE antibody production from murine spleen B cells. Briefly: Effects on the IgE antibody production from murine spleen cells (LPS + IL4). The note with it: Mus musculus, B-cell, 168 h; spleen B cells, LPS 10 μg/ml, IL4 100 U/ml, 7 days, enzyme-immunoassay; read-out: IC50 value, IgE antibody production.

For `O[C@H]1C=C[C@H]2CO[C@@H]1O2` [Compound 1, 1,6-anhydro-3,4-dideoxy-β-D-threo-hex-3-enopyranose], the values for the IC50 in test [1], in test [2] and in test [3] were 37 µg/mL, 25 µg/mL and 32 µg/mL, respectively.

On to `O=C(O[C@H]1C=C[C@H]2CO[C@@H]1O2)c1ccco1` [Compound 17, 1,6-anhydro-3,4-dideoxy-2-O-(2-furancarbonyl)-β-D-threo-hex-3-enopyranose], for which the IC50 in test [1] was 1 µg/mL; in test [2], 100 µg/mL; in test [3] it was 3.2 µg/mL.

As to `C#C[C@]1(O)C=C[C@H]2CO[C@@H]1O2` [Compound 29], the IC50 in test [1] is 380 µg/mL; in test [2], over 1000 µg/mL; in test [3], 320 µg/mL.

One may read the IC50 as the concentration at which inhibition is half-maximal.
